Converted amounts (≈) assume the structure as drawn.
Key:
[1] = biological target: T1, Glucose-dependent insulinotropic receptor (Homo sapiens, UniProt Q8TDV5); assay: Agonist activity at human GPR119
T1 sequence (Q8TDV5 whole entry): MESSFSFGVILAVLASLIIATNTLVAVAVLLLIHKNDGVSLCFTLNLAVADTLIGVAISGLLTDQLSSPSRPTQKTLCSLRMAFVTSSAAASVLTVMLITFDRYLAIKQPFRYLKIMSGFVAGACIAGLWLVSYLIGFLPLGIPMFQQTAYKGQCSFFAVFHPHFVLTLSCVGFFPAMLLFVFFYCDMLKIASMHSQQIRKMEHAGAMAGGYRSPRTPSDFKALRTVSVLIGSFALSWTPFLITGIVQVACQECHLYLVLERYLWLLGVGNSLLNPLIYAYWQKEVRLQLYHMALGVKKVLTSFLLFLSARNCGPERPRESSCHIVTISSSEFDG

[2] = Solubility of the compound at pH 6.5; format: physicochemical; conditions: buffer
[3] = Half life in human liver microsomes; format: ADME
[4] = Half life in mouse; format: ADME, organism-based; conditions: in vivo
[5] = Half life in Sprague-Dawley rat at 5 mg/kg, po; format: ADME, organism-based; design: dose 5 mg/kg, route oral; conditions: Sprague-Dawley, in vivo
[6] = Solubility of the compound in 50% PEG400/ 50% PBS solution; format: physicochemical
[7] = biological target: T2, Glucose-dependent insulinotropic receptor (Homo sapiens) (UniProt Q8TDV5); assay: Intrinsic activity at human GPR119 relative to control
T2 sequence (whole entry): T1 sequence (Q8TDV5 whole entry)

Structure (SMILES)	EC50 [1]	Intrinsic activity [7]	also measured
CCCc1cnc(N2CCC(Oc3cc(C)n(-c4ccc(S(C)(=O)=O)cc4)c(=O)c3)CC2)nc1	> 10 µM		
CC(C)OC(=O)N1CC(COc2ccn(-c3ccc(S(C)(=O)=O)cc3)c(=O)c2)C1	> 10 µM		
CC(C)OC(=O)N1[C@@H]2CC[C@@H]1CC(Oc1ccn(-c3ccc(S(C)(=O)=O)cc3)c(=O)c1)C2 (relative stereo; 13) [listing 1 of 2 here]		1	
CC(C)OC(=O)N1CCC(COc2ccn(-c3ccc(S(C)(=O)=O)cc3)c(=O)c2)C1 (stereo not given)	> 10 µM		
CC(C)OC(=O)N1CCC(Oc2ccn(-c3ccc(S(C)(=O)=O)cc3)c(=O)c2)CC1	0.133 µM	0.8	
CCCc1cnc(N2CCC(Oc3cc(=O)n(-c4ccc(S(C)(=O)=O)cc4)cc3Cl)CC2)nc1		0.8	
CC(C)(C)OC(=O)N1CCC(Oc2ccn(-c3ccc(S(C)(=O)=O)cc3)c(=O)c2)CC1	0.183 µM	0.8	
CCCc1cnc(N2CCC(Oc3cc(=O)n(-c4ccc(S(C)(=O)=O)cc4)cc3-c3ccccc3)CC2)nc1	> 10 µM		
Cc1ccnc(N2CCC(Oc3ccn(-c4ccc(S(C)(=O)=O)cc4)c(=O)c3)CC2)n1	0.724 µM	0.3	
CC(C)OC(=O)N1CCC(COc2ccn(-c3ccc(S(C)(=O)=O)cc3)c(=O)c2)CC1	1.7 µM	0.7	
CCCc1cnc(N2CCC(Oc3ccn(-c4ccc(-n5ccnc5)cc4)c(=O)c3)CC2)nc1		0.8	
CC(C)OC(=O)N1[C@@H]2CC[C@@H]1CC(Oc1ccn(-c3ccc(S(C)(=O)=O)cc3)c(=O)c1)C2 (relative stereo; 14)		0.7	
CCCc1cnc(N2CCC(Oc3ccn(-c4ccc(S(C)(=O)=O)cc4)c(=O)c3Cl)CC2)nc1	> 10 µM		
CC(C)OC(=O)N1CCCC(Oc2ccn(-c3ccc(S(C)(=O)=O)cc3)c(=O)c2)CC1 (stereo not given)	1.09 µM	0.7	
CC(C)OC(=O)N1CCC(Oc2ccn(-c3ccc(S(C)(=O)=O)cc3)c(=O)c2)C1 (stereo not given)	> 10 µM		
CC(C)OC(=O)N1[C@@H]2CC[C@@H]1CC(Oc1ccn(-c3ccc(S(C)(=O)=O)cc3)c(=O)c1)C2 (relative stereo; 13) [listing 2 of 2 here]	0.87 µM		
CC(C)OC(=O)N1CC(Oc2ccn(-c3ccc(S(C)(=O)=O)cc3)c(=O)c2)C1	> 10 µM		

The next lines start with results.

EC50 [1]	Intrinsic activity [7]	Structure (SMILES)	also measured
0.012 µM		CS(=O)(=O)c1ccc(-n2cc(Cl)c(OC3CCN(c4ncc(C(F)(F)F)cn4)CC3)cc2=O)c(F)c1	solubility [2]: 1 µg/mL (≈ 1.83 µM); half-life [3]: > 120 min; half-life [4]: 30 min; half-life [5]: > 72 min; solubility [6]: 122 µg/mL (≈ 223 µM)
0.009 µM	0.8	CCCc1cnc(N2CCC(Oc3ccn(-c4ccc(S(C)(=O)=O)c(F)c4)c(=O)c3)CC2)nc1	
0.012 µM	0.8	CCCc1cnc(N2CCC(Oc3cc(=O)n(-c4ccc(S(C)(=O)=O)cc4)cc3C#N)CC2)nc1	
0.013 µM		CS(=O)(=O)c1ccc(-n2cc(Cl)c(OC3CCN(c4ncc(C(F)(F)F)cn4)CC3)cc2=O)cc1	solubility [2]: < 1 µg/mL; half-life [3]: > 120 min; half-life [4]: 16 min; half-life [5]: > 72 min; solubility [6]: 3 µg/mL (≈ 5.67 µM)
0.057 µM	0.8	CCc1cnc(N2CCC(Oc3ccn(-c4ccc(S(C)(=O)=O)cc4)c(=O)c3)CC2)nc1	
0.011 µM	0.8	CCCc1cnc(N2CCC(Oc3ccn(-c4ccc(C#N)cc4)c(=O)c3)CC2)nc1	
0.104 µM	0.6	CCc1ccc(N2CCC(Oc3ccn(-c4ccc(S(C)(=O)=O)cc4)c(=O)c3)CC2)nc1	
0.117 µM	1	COc1cnc(N2CCC(Oc3ccn(-c4ccc(S(C)(=O)=O)cc4)c(=O)c3)CC2)nc1	
0.032 µM	0.8	CCCc1cnc(N2CCC(Oc3ccn(-c4ccc(N5CCCC5=O)cc4)c(=O)c3)CC2)nc1	
0.013 µM		CS(=O)(=O)c1ccc(-n2cc(Cl)c(OC3CCN(c4ncc(Cl)cn4)CC3)cc2=O)cc1F	solubility [2]: 3 µg/mL (≈ 5.84 µM); half-life [3]: 39 min; half-life [4]: 18 min; half-life [5]: 12 min; solubility [6]: 199 µg/mL (≈ 388 µM)
0.037 µM	0.8	CCCc1cnc(N2CCC(Oc3ccn(-c4ccc(NC(=O)C(C)(C)C)cc4)c(=O)c3)CC2)nc1	
0.016 µM		CS(=O)(=O)c1ccc(-n2cc(Cl)c(OC3CCN(c4ncc(C(F)(F)F)cn4)CC3)cc2=O)cc1F	solubility [2]: < 1 µg/mL; half-life [3]: > 120 min; half-life [4]: 27 min; half-life [5]: > 48 min; solubility [6]: 31 µg/mL (≈ 56.7 µM)
0.063 µM	0.8	CCCc1cnc(N2CCC(Oc3ccn(-c4ccc(-n5cncn5)cc4)c(=O)c3)CC2)nc1	
0.023 µM	0.9	CS(=O)(=O)c1ccc(-n2ccc(OC3CCN(c4ncc(C5CC5)cn4)CC3)cc2=O)cc1	
0.016 µM	0.8	CCCc1cnc(N2CCC(Oc3ccn(-c4ccc(S(C)(=O)=O)cc4)c(=O)c3)CC2)nc1	
0.018 µM		CS(=O)(=O)c1ccc(-n2cc(Cl)c(OC3CCN(c4ncc(Cl)cn4)CC3)cc2=O)cc1	solubility [2]: < 1 µg/mL; half-life [3]: 59 min; half-life [4]: 11 min; half-life [5]: 9 min; solubility [6]: 7 µg/mL (≈ 14.1 µM)
0.13 µM	0.9	CS(=O)(=O)c1ccc(-n2ccc(OC3CCN(C(=O)Oc4ccccc4)CC3)cc2=O)cc1	
0.041 µM	0.9	CCCc1cnc(N2CCC(Oc3ccn(-c4ccc([S+](C)[O-])cc4)c(=O)c3)CC2)nc1 (racemic)	
0.031 µM	0.9	CCCc1cnc(N2CCC(Oc3cc(=O)n(-c4ccc(S(C)(=O)=O)cc4)cc3C)CC2)nc1	

Source: ChEMBL document CHEMBL3352258 (J Med Chem, 2014)
